Measurements taken from the NIST ThermoML archive (doi:10.1016/j.jct.2016.06.034).

Assay: mn = molality of the nth substance listed, in mol/kg
Settings: for mass density / electrical conductivity / speed of sound: 84.5 kPa, Liquid; for mass density: Vibrating tube method; for surface tension liquid-gas: platinum plate method; for electrical conductivity: Alternating current cell with electrodes; for speed of sound: Frequency=3 MHz, Sing-around technique in a fixed-path interferometer

CCCCCCCCCCn1cc[n+](C)c1.[Br-] [1-decyl-3-methylimidazolium bromide] + O
Settings | electrical conductivity [S/m] | mass density [kg/m3] | speed of sound [m/s] | surface tension liquid-gas [mN/m]
303.15 K, m1 = 0.0095 | – | 996.005 | – | –
303.15 K, m1 = 0.01379 | – | 996.169 | – | –
303.15 K, m1 = 0.01652 | – | 996.273 | – | –
303.15 K, m1 = 0.02179 | – | 996.475 | – | –
303.15 K, m1 = 0.02615 | – | 996.639 | – | –
303.15 K, m1 = 0.03106 | – | 996.825 | – | –
303.15 K, m1 = 0.03338 | – | 996.912 | – | –
303.15 K, m1 = 0.03819 | – | 997.092 | – | –
303.15 K, m1 = 0.0406 | – | 997.186 | – | –
303.15 K, m1 = 0.04332 | – | 997.276 | – | –
303.15 K, m1 = 0.04614 | – | 997.377 | – | –
303.15 K, m1 = 0.05515 | – | 997.672 | – | –
303.15 K, m1 = 0.06396 | – | 997.957 | – | –
303.15 K, m1 = 0.07815 | – | 998.413 | – | –
303.15 K, m1 = 0.122 | – | 999.792 | – | –
303.15 K, m1 = 0.1726 | – | 1001.35 | – | –
303.15 K, m1 = 0.2247 | – | 1002.91 | – | –
303.15 K, m1 = 0.2539 | – | 1003.77 | – | –
308.15 K, m1 = 1e-05 | 0.000218 | – | – | –
308.15 K, m1 = 3e-05 | 0.000397 | – | – | –
308.15 K, m1 = 4e-05 | 0.000606 | – | – | –
308.15 K, m1 = 7e-05 | 0.000959 | – | – | –
308.15 K, m1 = 0.0001 | 0.00133 | – | – | –
308.15 K, m1 = 0.00013 | 0.00169 | – | – | –
308.15 K, m1 = 0.00017 | 0.00228 | – | – | –
308.15 K, m1 = 0.00024 | 0.0032 | – | – | –
308.15 K, m1 = 0.00039 | 0.0051 | – | – | –
308.15 K, m1 = 0.00069 | 0.00888 | – | – | –
308.15 K, m1 = 0.00098 | 0.0124 | – | – | –
308.15 K, m1 = 0.0014 | 0.0178 | – | – | –
308.15 K, m1 = 0.00242 | 0.0302 | – | – | –
308.15 K, m1 = 0.00326 | 0.0401 | – | – | –
308.15 K, m1 = 0.00348 | 0.0427 | – | – | –
308.15 K, m1 = 0.0063 | 0.0752 | – | – | –
308.15 K, m1 = 0.00691 | – | – | – | 46.2
308.15 K, m1 = 0.00928 | 0.108 | – | – | –
308.15 K, m1 = 0.0095 | – | 994.377 | 1521.3 | –
308.15 K, m1 = 0.01212 | 0.139 | – | – | –
308.15 K, m1 = 0.01368 | – | – | – | 40.98
308.15 K, m1 = 0.01379 | – | 994.536 | 1522 | –
308.15 K, m1 = 0.01499 | 0.169 | – | – | –
308.15 K, m1 = 0.01652 | – | 994.638 | 1522.4 | –
308.15 K, m1 = 0.01731 | 0.193 | – | – | –
308.15 K, m1 = 0.01851 | – | – | – | 39.3
308.15 K, m1 = 0.02003 | 0.22 | – | – | –
308.15 K, m1 = 0.02179 | – | 994.831 | 1523.2 | –
308.15 K, m1 = 0.02313 | 0.25 | – | – | –
308.15 K, m1 = 0.0251 | – | – | – | 38.12
308.15 K, m1 = 0.02573 | 0.275 | – | – | –
308.15 K, m1 = 0.02615 | – | 994.993 | 1523.7 | –
308.15 K, m1 = 0.0282 | 0.298 | – | – | –
308.15 K, m1 = 0.03065 | 0.321 | – | – | –
308.15 K, m1 = 0.03094 | – | – | – | 37.39
308.15 K, m1 = 0.03106 | – | 995.17 | 1524.4 | –
308.15 K, m1 = 0.03312 | 0.343 | – | – | –
308.15 K, m1 = 0.03338 | – | 995.253 | 1524.7 | –
308.15 K, m1 = 0.03447 | – | – | – | 36.95
308.15 K, m1 = 0.03589 | 0.367 | – | – | –
308.15 K, m1 = 0.03819 | – | 995.428 | 1525.4 | –
308.15 K, m1 = 0.03832 | 0.388 | – | – | –
308.15 K, m1 = 0.04053 | 0.406 | – | – | –
308.15 K, m1 = 0.0406 | – | 995.52 | 1525.5 | –
308.15 K, m1 = 0.04063 | – | – | – | 36.49
308.15 K, m1 = 0.04223 | 0.419 | – | – | –
308.15 K, m1 = 0.04332 | – | 995.61 | 1525.8 | –
308.15 K, m1 = 0.04385 | 0.429 | – | – | –
308.15 K, m1 = 0.04569 | 0.439 | – | – | –
308.15 K, m1 = 0.04614 | – | 995.708 | 1526 | –
308.15 K, m1 = 0.0479 | – | – | – | 36.69
308.15 K, m1 = 0.04793 | 0.449 | – | – | –
308.15 K, m1 = 0.04988 | 0.457 | – | – | –
308.15 K, m1 = 0.05063 | – | – | – | 37.17
308.15 K, m1 = 0.05219 | – | – | – | 37.66
308.15 K, m1 = 0.05236 | 0.466 | – | – | –
308.15 K, m1 = 0.05506 | – | – | – | 37.95
308.15 K, m1 = 0.05515 | – | 995.996 | 1526.1 | –
308.15 K, m1 = 0.05533 | 0.477 | – | – | –
308.15 K, m1 = 0.05718 | 0.483 | – | – | –
308.15 K, m1 = 0.05941 | 0.492 | – | – | –
308.15 K, m1 = 0.06163 | 0.498 | – | – | –
308.15 K, m1 = 0.06382 | 0.507 | – | – | –
308.15 K, m1 = 0.06396 | – | 996.274 | 1526.1 | –
308.15 K, m1 = 0.07 | – | – | – | 38.27
308.15 K, m1 = 0.07815 | – | 996.719 | 1526 | –
308.15 K, m1 = 0.09792 | – | – | – | 38.41
308.15 K, m1 = 0.122 | – | 998.067 | 1525.6 | –
308.15 K, m1 = 0.1694 | – | – | – | 38.44
308.15 K, m1 = 0.1726 | – | 999.588 | 1525.1 | –
308.15 K, m1 = 0.2247 | – | 1001.11 | 1524.7 | –
308.15 K, m1 = 0.2268 | – | – | – | 38.2
308.15 K, m1 = 0.2539 | – | 1001.95 | 1524.4 | –
